Results taken from article PMC3024946, “Hydroxyproline-containing collagen analogs trigger the release and activation of collagen-sequestered proMMP-2 by competition with prodomain-derived peptide P33-42” (Fibrogenesis & Tissue Repair, 2011).
Entries after “also recorded” stand apart in the source; their conditions may differ.

Experiments:
collagen type I (CI) = assay: SPR binding of MMPs to immobilized CI, nonactivating buffer; design: species or system human
Description: (§1) Sensor chip preparations and SPR measurements were performed using a BiacoreX device and the Bia-evaluation software (version 3.2; Biacore, Uppsala, Sweden). The pepsin-resistant triple-helical part of human fibrillar CI (100 μg/ml) in 10 mM acetate coupling buffer, pH 4.8, was immobilized to a dextran matrix-sensor chip at a flow rate of 5 μl/min, resulting in 5,500 resonance units from CI covalently linked via its primary amino groups. The control flow cell was prepared using the coupling buffer without CI. Surfaces were activated and blocked as described previously. Immediately after thawing, pro- and actMMP-2 and pro- and actMMP-9 were diluted to 100 to 250 nM in MMP activity buffer or in PBS and 0.05% (vol/vol) Tween 20. For SPR measurements, flow rates were 10 μl/min at 25°C, and equilibrium was typically reached after 30 to 60 s. The effects of (GPO)10, GAP, (POG)5, (GPP)10 and P33-42 on MMP-2 and MMP-9 binding to CI and their enzymatic activity were determined by adding the binding competitors to the (pro- and act)MMP-2 and MMP-9 solution in 10- to 150-fold molar excesses. Effects independent of MMP-2 and MMP-9 activity were monitored in the presence of Ro 28-2653 (1 μM) during SPR analysis. The gelatinase inhibitor Ro 28-2653 was a generous gift from H.-W. Krell (Roche, Grenzach-Wyhlen, Germany). Sensor surfaces were regenerated with 10 mM glycine, pH 2.3, for 1 min between runs, and sensor chips were used up to 25 times. Kinetic parameters were analyzed using the 1:1 binding model with drifting baseline and subtraction of the control flow cell binding from sensorgrams obtained with immobilized CI. Binding constants (Kd) were calculated from the association (ka) and dissociation rates (kd) obtained from individual binding curves at different concentrations. Individual drifts of the resonance signal were fitted locally, and χ^2 values of 0.2% to 1.0% of the maximum resonance value were considered good fits.

[1] = In situ binding of MMPs to fibrotic liver sections; design: species or system human; details: immunohistochemistry; 25 ng MMP, 30 min
Description: Human cirrhotic liver cryostat sections (5 μm) were air-dried and fixed in ice-cold acetone for 10 min. Tissue sections were rehydrated with PBS and incubated with 25 ng/50 μl of the respective proMMP and actMMP for 30 min or were left untreated. After thorough washing with PBS, antibodies specific for human MMP-9 (clone MAB911; R&D Systems, Minneapolis, MN, USA) and human MMP-2 (clone 75-7F7; Oncogene, Cambridge, MA, USA) were applied, and primary antibody binding was detected using the alkaline phosphatase-antialkaline phosphatase detection system (Dako, Hamburg, Germany). An irrelevant primary mouse antibody served as control. Nuclei were counterstained with Hemalaun, and slides were examined by standard light microscopy.

proMMP-2 / CI = molecular target: T1, proMMP-2 / CI (Homo sapiens, UniProt P08253); assay: SPR, competition of proMMP-2 binding to CI, MMP activity buffer with Ro 28-2653
T1 construct: prodomain-containing proMMP-2 or proMMP-9; purchased Invitek
T1 sequence (P08253 30-660 limits assumed): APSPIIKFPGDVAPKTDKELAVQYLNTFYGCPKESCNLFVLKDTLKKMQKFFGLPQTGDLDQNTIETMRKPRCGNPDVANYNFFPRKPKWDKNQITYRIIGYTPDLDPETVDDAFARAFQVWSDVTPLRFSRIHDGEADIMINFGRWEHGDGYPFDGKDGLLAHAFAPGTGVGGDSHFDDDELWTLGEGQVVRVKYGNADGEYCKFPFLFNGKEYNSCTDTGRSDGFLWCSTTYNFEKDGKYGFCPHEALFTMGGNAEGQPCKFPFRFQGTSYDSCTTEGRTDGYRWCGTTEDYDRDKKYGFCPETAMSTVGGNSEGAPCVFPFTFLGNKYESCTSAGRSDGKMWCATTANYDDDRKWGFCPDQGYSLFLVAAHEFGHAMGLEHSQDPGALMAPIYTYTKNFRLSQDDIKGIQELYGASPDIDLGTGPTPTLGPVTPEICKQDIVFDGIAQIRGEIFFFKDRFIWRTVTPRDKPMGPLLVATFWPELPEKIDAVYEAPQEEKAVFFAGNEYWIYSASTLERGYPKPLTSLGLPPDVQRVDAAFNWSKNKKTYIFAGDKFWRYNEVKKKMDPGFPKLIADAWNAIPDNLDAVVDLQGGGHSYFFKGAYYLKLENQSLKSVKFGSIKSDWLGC
Description: as §1

ProMMP-2 [2] = assay: Substrate gel zymography of treated proMMP-2; assay type: biochemical, human; details: 50 ng proMMP-2, 2-h incubation at room temperature
Description: Samples containing MMP-2 were diluted with zymogram sample buffer (Bio-Rad, Munich, Germany) and separated on homogeneous 10% SDS-PAGE gels containing 1 mg/ml (wt/vol) gelatine (Bio-Rad), washed with excess MMP activity buffer containing 2.5% (vol/vol) Triton X-100 to remove SDS, and incubated with MMP activity buffer for 24 h. Gels were stained with Coomassie Blue R-250. Gels showing proteolytic bands corresponding to proMMP-2 (72 kDa) or actMMP-2 (62 kDa) were scanned (Plustek, Norderstedt, Germany) and analyzed from inverted grayscale images.

ProMMP-2 [3] = assay: DQ-gelatine degradation assay with MMP-2; assay type: biochemical, human; details: for DQ-gelatine cleavage by proMMP-2: 5 h at 25°C
Description: (§2) Enzymatic activities of MMPs were studied spectrofluorimetrically by cleavage of fluorogenic substrates in MMP activity buffer within 2 to 5 h. For gelatinases 800 nM MCA-Pro-Leu-Gly-Leu-Dnp-Dap-Ala-Arg-NH2 (λex/em 328/393 nm; Bachem, Bubendorf, Switzerland) or 10 μg/ml DQ-gelatine were used, according to the method described by Knight et al. for collagenases 800 nM MCA-Pro-Cha-Gly-Nva-His-Ala-Dpa-NH2 (λex/em 280/360 nm; Anaspec, San José, CA, USA). In some experiments, proMMP-2 was fully activated in the presence of 1 mM APMA prior to the kinetic measurements. A quantity of 50 ng pro- or actMMP-2 alone or mixed with 10- to 150-fold molar excesses of (GPO)10, GAP, P33-42 or mixtures of (GPO)10 and P33-42, were added to CI-coated, BSA-coated (1 μg/well both) or uncoated wells containing 150 μl of the respective substrate solution. The peptide P33-42 was purchased from the Institute of Biochemistry (Humboldt-University, Berlin, Germany). The influence of CI on MMP-2 enzymatic activity against the quenched fluorescent substrate could be excluded. Background subtraction (measurement without MMPs) was applied to all curves. All experiments were performed with a fluorescence microplate reader (Molecular Devices, Sunnyvale, CA, USA) and black 96-well microtiter plates with a clear bottom (Greiner bio-one, Frickenhausen, Germany).

MMP-9 = assay: Effect of P33-42 on MMP-9; assay type: biochemical; details: MMP devoid of prodomain-CBD interaction; data not shown
Description: as §2

MMP-13 = assay: Effect of P33-42 on MMP-13; assay type: biochemical; details: MMP without CBD; data not shown
Description: as §2

[4] = molecular target: Col-3 module of the CBD of MMP-2; details: ref [7]; cited from earlier work
Text: Finally, we asked how (GPO)10 competes CBD-mediated binding of proMMP-2 to fibrillar collagen and thereby modulates binding as well as enzymatic activity and activation. We made use of the P33-42 peptide derived from the prodomain of MMP-2. […] Even at high molar ...

binding to CI relative to proMMP-9 (collagen type I (CI); nonactivating conditions)	Off rate (collagen type I (CI); without (GPO)10, MMP 100 nM, PBS, 0.05% Tween 20, 25°C, mean from at least three experiments) [s⁻¹]	Kd (collagen type I (CI); without (GPO)10, MMP 100 nM, PBS, 0.05% Tween 20, 25°C, mean ± SD, at least three experiments) [µM]	binding to liver sections [1]	increase of Kd of proMMP-2 binding to CI (proMMP-2 / CI; high (up to 100-fold) molar excesses, 100-250 nM proMMP-2, 1 μM Ro 28-2653)	Substance	competition with proMMP-2 binding to CI (proMMP-2 / CI; SPR, MMP activity buffer with Ro 28-2653)	substrate zymography, prodomain-free actMMP-2 band (ProMMP-2 [2])	DQ-gelatine cleavage by proMMP-2 (ProMMP-2 [3]; 50- to 100-fold molar excesses)	DQ-gelatine cleavage by proMMP-2 (ProMMP-2 [3]; 150-fold molar excess)	proMMP-2 activation (ProMMP-2 [3]; P33-42 alone, even at high molar excesses)	effect on inhibitory effect of (GPO)10 on MMP-2 activity (ProMMP-2 [3]; equimolar mixture of (GPO)10 and P33-42, 150-fold molar excess)	effect on (GPO)10-mediated activation of proMMP-2 (ProMMP-2 [3]; equimolar mixtures of (GPO)10 and P33-42, 50- to 100-fold molar excesses)	effect on MMP (MMP-9)	effect on MMP (MMP-13)	Kd [4] [µM]
sevenfold less effectively	0.76	0.87 ± 0.39	No significant binding	–	ActMMP-9: 86-kDa activated form of MMP-9	–	–	–	–	–	–	–	–	–	–
–	–	–	–	up to 50%	P33-42: MMP-2 prodomain-derived CBD-binding peptide (PIIKFPGDVA)	competed with proMMP-2 binding to CI; also recorded: only slightly inhibited proMMP-2 binding to CI	did not occur	no activating effect but a slight inhibitory effect	more enhanced inhibitory effect	did not activate proMMP-2; also recorded: did not affect proMMP-2 activation	the inhibitory effect of (GPO)10 on MMP-2 activity was diminished	prevented (GPO)10-mediated proMMP-2 activation; also recorded: drastically diminished the activating effect of (GPO)10 on proMMP-2; also recorded: blocked (GPO)10-mediated proMMP-2 activation	no effects	no effects	1600
